Experimental data as given in patent US4374136A, “Pyrimidine derivatives” (May & Baker Limited, priority 1980, dated 1983).
Like-named read-outs stand apart in the source and are kept apart here.

Assays:
[1] = test system: Plasmodium yoelii nigeriensis (strain PR); assay: Antimalarial activity in mice, pyrimethamine-resistant Plasmodium yoelii nigeriensis strain PR, oral daily for 4 days; type: in vivo; settings: for Number of mice cured: PR; for ED50: Plasmodium yoelii, 504 h, strain PR, oral daily for 4 days from day of infection, 21 days observation, read-out: CD50 (dose required to cure 50% of mice tested)
Procedure: (§1) (a) The test compounds were tested in mice, against Plasmodium yoelii nigeriensis (strain N67), which is sensitive to pyrimethamine, and against a strain of Plasmodium yoelii nigeriensis [strain PR (derived from strain N67)] which is resistant to pyrimethamine, and also against pyrimethamine sensitive Plasmodium berghei (strain N30).
(§2) In the experiments, the mice were each infected intraperitoneally with about 10^6 trophozoites. The test compound was administered orally daily for 4 days, beginning on the day of infection, and peripheral blood smears of the mice were observed 2 or 3 times per week for a total of 21 days. The numbers of mice cured were counted and the dose required to cure 50% of mice tested (CD50) was calculated.

[2] = test system: Plasmodium berghei (strain N30); assay: Antimalarial activity in mice, Plasmodium berghei strain N30, oral daily for 4 days; type: in vivo; settings: for Number of mice cured: 24 mice tested; for ED50: Plasmodium berghei, 504 h, read-out: CD50 (dose required to cure 50% of mice tested)
Procedure: as §1, §2

[3] = test system: Plasmodium yoelii nigeriensis (strain N67); assay: Antimalarial activity in mice, Plasmodium yoelii nigeriensis strain N67, oral daily for 4 days; type: in vivo; settings: for ED50: Plasmodium yoelii, 504 h, read-out: CD50 (dose required to cure 50% of mice tested)
Procedure: as §1, §2

dogs = assay: Toxicity in dogs, oral; type: in vivo
[4] = Acute oral toxicity in mice; type: in vivo; settings: mouse, in vivo; single oral dose, mice; read-out: LD50 (dose required to kill 50% of the mice tested)
Procedure: (§3) Mice were treated with a single dose of the compound of formula III by the oral route, and were observed until all survivors had appeared to be healthy for 3 consecutive days. The LD50 dose (dose required to kill 50% of the mice tested) was then calculated.
(§4) In a similar test on reference compound RCA an oral dose of 1000 mg/kg killed 2 out of 5 mice, giving an LD50 figure of […].

mice = assay: Acute oral toxicity in mice; type: in vivo; settings: 5 mice tested
Procedure: as §3, §4

[5] = test system: Plasmodium yoelii nigeriensis (strain N67); assay: Single oral dose antimalarial test in mice infected with strain N67; type: in vivo, Plasmodium yoelii nigeriensis; mice; settings: for ED50: Plasmodium yoelii
Procedure: (b) Mice were each infected intraperitoneally with about 10^6 trophozoites of strain N67 of Plasmodium yoelii nigeriensis. […] The numbers of mice cured were counted and the dose required to cure 50% of mice tested (CD50) was calculated.
The results obtained are shown below in Table II, in comparison with a test using pyrimethamine against the same organism.

malaria = assay: Comparative activity against malaria (general statement); type: in vivo
Source text: The properties of the compound of formula III are illustrated by the following laboratory tests.

[6] = 504 h, one single oral dose 48 hours after infection, strain N67, read-out: CD50 (dose required to cure 50% of mice tested)

## Cc1nc(N)nc(N)c1OCCCOc1ccc(-c2ccc(Cl)cc2)cc1 [compound of formula III, 2,4-diamino-5-[3-{4-(4-chlorophenyl)phenoxy}propoxy]-6-methylpyrimidine]
[1]; daily dose 0.2 mg/kg, 16 mice tested
  Number of mice cured: 0 mice
[1]; daily dose 2.0 mg/kg, 16 mice tested
  Number of mice cured: 3 mice
[1]; daily dose 20.0 mg/kg, 15 mice tested
  Number of mice cured: 15 mice
[1]
  ED50: 3 mg/kg
[2]; N30, daily dose 0.125 mg/kg
  Number of mice cured: 0 mice
[2]; N30, daily dose 0.5 mg/kg
  Number of mice cured: 14 mice
[2]; N30, daily dose 2.0 mg/kg
  Number of mice cured: 24 mice
[2]; strain N30, oral daily for 4 days from day of infection, 21 days observation
  ED50: 0.45 mg/kg
[3]; N67, daily dose 0.125 mg/kg, 32 mice tested
  Number of mice cured: 2 mice
[3]; N67, daily dose 0.5 mg/kg, 32 mice tested
  Number of mice cured: 28 mice
[3]; N67, daily dose 2.0 mg/kg, 31 mice tested
  Number of mice cured: 31 mice
[3]; strain N67, oral daily for 4 days from day of infection, 21 days observation
  ED50: 0.3 mg/kg
dogs; 15 mg/kg/day (highest dosage), 6 dogs
  Number of dogs in which clinically well-tolerated: 5 dogs
dogs; oral gelatin capsules, one month, 1, 3 and 9 mg/kg/day
  Clinical tolerance in dogs: clinically well-tolerated
dogs; versus reference compound RCA
  Toxicity in dogs in comparison: much less toxic in dogs than reference compound RCA
[4]
  LD50: ~1000 mg/kg
mice; 500 mg/kg oral
  Number of mice killed: 0 mice
mice; 1000 mg/kg oral
  Number of mice killed: 3 mice
[5]; [6]
  ED50: 3.5 mg/kg
[5]; single dose 0.2 mg/kg, 48 hours after infection, 8 mice tested
  Number of mice cured: 0 mice
[5]; single dose 2.0 mg/kg, 48 hours after infection, 8 mice tested
  Number of mice cured: 1 mice
[5]; single dose 20.0 mg/kg, 48 hours after infection, 8 mice tested
  Number of mice cured: 8 mice
malaria; sensitive and resistant strains of malaria, versus reference compound RCA
  Antimalarial activity in comparison: very much more active than reference compound RCA

## CCc1nc(N)nc(N)c1-c1ccc(Cl)cc1 [pyrimethamine, 2,4-diamino-5-(4-chlorophenyl)-6-ethylpyrimidine]
[5]; [6]
  ED50: > 50 mg/kg
[5]; dose 5.0 mg/kg, 8 mice tested
  Number of mice cured: 0 mice
[5]; dose 50.0 mg/kg (maximum tolerated dose), 8 mice tested
  Number of mice cured: 0 mice

## Cc1nc(N)nc(N)c1OCCCOc1ccc(Cl)cc1C1CCCCC1 [reference compound RCA, 2,4-diamino-6-methyl-5-[3-(4-chloro-2-cyclohexylphenoxy)propoxy]pyrimidine, reference compound]
[1]; daily dose 10 mg/kg, 32 mice tested
  Number of mice cured: 0 mice
[1]; daily dose 100 mg/kg, 32 mice tested
  Number of mice cured: 32 mice
[1]
  ED50: 30 mg/kg
[2]; N30, daily dose 1 mg/kg
  Number of mice cured: 0 mice
[2]; N30, daily dose 10 mg/kg
  Number of mice cured: 5 mice
[2]; N30, daily dose 100 mg/kg
  Number of mice cured: 24 mice
[2]; po
  ED50: 15 mg/kg
[3]; N67, daily dose 1 mg/kg, 32 mice tested
  Number of mice cured: 2 mice
[3]; N67, daily dose 5 mg/kg, 32 mice tested
  Number of mice cured: 17 mice
[3]; N67, daily dose 25 mg/kg, 31 mice tested
  Number of mice cured: 31 mice
[3]; po
  ED50: 5 mg/kg
dogs; doses higher than 3 mg/kg/day
  Deaths in dogs: deaths occurring at higher doses
dogs; even at doses of 3 mg/kg/day
  Clinical tolerance in dogs: clinically badly tolerated
[4]
  LD50: ~1000 mg/kg
mice; 1000 mg/kg oral
  Number of mice killed: 2 mice
[5]; po, 24 h, read-out: CD50
  ED50: > 200 mg/kg
[5]; oral dose 200 mg/kg, 24 hours after infection, 8 mice
  Number of mice cured: 2 mice
malaria; fold as active
  Activity against malaria relative to any of the other 34 compounds of B.P. 1546937 tested: at least 4 times
